Source: patent publication US20230110378A1, “MONOBACTAM COMPOUND AND USE THEREOF” (EVOPOINT BIOSCIENCES CO., LTD., priority 2019, published 2023)
Converted amounts (≈) assume the structure as drawn.

Columns and labels:
Test in all cases: Minimum inhibitory concentration (broth microdilution, CLSI)
Assay type in all cases: cell-based
[1] = system: Enterobacter cloacae HDBECL 30030; conditions: HDBECL30030
Protocol: (§1) 103 bacterial strains used for the minimum inhibitory concentration test were frozen in a −80° C. ULT freezer and thawed 2 days before use. A small amount of frozen microorganism bacteria were scraped using a sterile inoculating loop, streaked onto a suitable solid culture dish for inoculation, and then cultured for about 20 h at 35 t 2° C. in a normal incubator. • Proteus mirabilis HDBPM 40: MA, normal atmospheric environment • The remaining 102 strains of bacteria: TSA, normal atmospheric environment
(§2) 5-10 colonies with similar morphology were picked from the culture dish using a sterile inoculating loop and then re-streaked onto a corresponding solid culture dish. Then the dish was incubated in a normal incubator at 35 t 2° C. for about 20 h.
(§3) 5-10 single microbial colonies were picked from the solid culture dish, resuspended in 500 μL of sterile normal saline (0.9% NaCl), and adjusted to an OD600 of about 0.15 with a spectrophotometer.
(§4) The bacteria were then diluted 300-fold with 1.02×CAMHB to an inoculation concentration of 2×10^5 CFU/mL.
(§5) • There were a total of 3 assay plate patterns, one of which was used for each assay. • 8 rows of the assay plate (rows A-H) were for 8 test compounds, respectively. The highest test concentration of the compounds was 16, 32 or 64 μg/mL, and each compound was diluted 2-fold. • Growth control (GC): a medium containing microbial inoculum (1.02×CAMHB) and dimethylsulfoxide (DMSO) but no compound.
(§6) The test and reference compounds were dissolved in DMSO or H2O to prepare 6.4 mg/mL stock solutions. The stock solutions were diluted to prepare standby solutions with certain concentrations, and the volumes of the standby solutions were determined according to the experimental design. Corresponding volumes of the standby solutions were transferred to the starting wells of a dilution plate (A1-H1), and half the starting-well volume of DMSO to the other wells. Each compound was diluted 2-fold sequentially from column 1 to column 11 (e.g., transferring 30 μL of DMSO to columns 2-12 first, then pipetting 30 μL of the compounds from column 1 to column 2 and mixing them well, then pipetting 30 μL of the compounds from column 2 to column 3 and mixing them well, then pipetting 30 μL of the compounds from column 3 to column 4 and mixing them well, and so on to column 11).
(§7) 1 or 2 μL of the compounds and DMSO were transferred from the compound plate to corresponding wells of the assay plates.
(§8) 98 μL of corresponding bacterial inocula were added to the assay plates.
(§9) After addition, the assay plates were covered with sterile covers. The mixtures in the assay plates were centrifuged in a centrifuge at 800 rpm for 30 s, mixed well on a microplate shaker at 400 rpm for 1 min, and incubated in a normal incubator at 35 t 2° C. for 20-24 h.
(§10) The assay plates were placed on a plate reading device, and the speculum was adjusted to observe and record the growth condition of bacteria in each well. In the mean time, each assay plate was photographed with QCount system.
(§11) The minimum inhibitory concentration of each compound was recorded by reference to guidelines from the Clinical and Laboratory Standards Institute.
(§12) The minimum inhibitory concentrations of the compounds against experimental strains were tested in this study by reference to the medium microdilution method as indicated by the Clinical and Laboratory Standards Institute. Compounds were diluted two-fold in 96-well plates from the highest detection concentration of 16, 32 or 64 μg/mL. The bacterial inocula in the assay plates were thawed from corresponding medium plates and diluted in 1.02×CAMHB, while growth controls (GC wells) were set up in the assay plates. The minimum inhibitory concentration of each compound against different bacteria was observed and recorded after the assay plates were incubated in a normal incubator at 35 t 2° C. for about 20 h. The minimum inhibitory concentration values for the different compounds are listed in the list below.

[2] = system: Escherichia coli HDBEC 30008; conditions: HDBEC30008
Protocol: as §1, §2, §3, §4, §5, §6, §7, §8, §9, §10, §11, §12

[3] = system: Escherichia coli HDBEC 30016; conditions: HDBEC30016
Protocol: as §1, §2, §3, §4, §5, §6, §7, §8, §9, §10, §11, §12

[4] = system: Escherichia coli HDBEC 30048; conditions: HDBEC30048
Protocol: as §1, §2, §3, §4, §5, §6, §7, §8, §9, §10, §11, §12

[5] = system: Klebsiella pneumoniae HDBKP 30006; conditions: HDBKP30006
Protocol: as §1, §2, §3, §4, §5, §6, §7, §8, §9, §10, §11, §12

[6] = system: Klebsiella pneumoniae HDBKP 9153; conditions: HDBKP9153
Protocol: as §1, §2, §3, §4, §5, §6, §7, §8, §9, §10, §11, §12

[7] = system: Klebsiella pneumoniae HDBKP 9249; conditions: HDBKP9249
Protocol: as §1, §2, §3, §4, §5, §6, §7, §8, §9, §10, §11, §12

[8] = system: Proteus mirabilis HDBPM 40; conditions: HDBPM40
Protocol: as §1, §2, §3, §4, §5, §6, §7, §8, §9, §10, §11, §12

[9] = system: Pseudomonas aeruginosa HDBPA 5679; conditions: HDBPA5679
Protocol: as §1, §2, §3, §4, §5, §6, §7, §8, §9, §10, §11, §12

| Compound | MIC [1] [µg/mL] | MIC [2] [µg/mL] | MIC [3] [µg/mL] | MIC [4] [µg/mL] | MIC [5] [µg/mL] | MIC [6] [µg/mL] | MIC [7] [µg/mL] | MIC [8] [µg/mL] | MIC [9] [µg/mL] |
| --- | --- | --- | --- | --- | --- | --- | --- | --- | --- |
| Cc1c(O)c(=O)cc(C(=O)NCCCn2cc(-c3ncc(C(=O)NC[C@@H]4[C@H](NC(=O)/C(=N\OC(C)(C)C(=O)O)c5csc(N)n5)C(=O)N4S(=O)(=O)O)s3)cn2)n1O [Compound I-46] | < 4 | < 4 | < 4 | < 4 | 8 to 16 (≈ 9.39 to 18.8 µM) | < 4 | 8 to 16 (≈ 9.39 to 18.8 µM) | < 4 | < 4 |
| Nc1nc(/C(=N/OC2(C(=O)O)CC2)C(=O)N[C@@H]2C(=O)N(S(=O)(=O)O)[C@@H]2CNC(=O)c2cc([C@@H]3CCN(C(=O)c4cc(=O)c(O)cn4O)C3)no2)cs1 [Compound I-22] | < 4 | < 4 | 4 to 8 (≈ 5.22 to 10.4 µM) | < 4 | > 16 | < 4 | 4 to 8 (≈ 5.22 to 10.4 µM) | < 4 | < 4 |
| C[n+]1cc(-c2ncc(C(=O)NC[C@@H]3[C@H](NC(=O)/C(=N\OC(C)(C)C(=O)O)c4csc(N)n4)C(=O)N3S(=O)(=O)O)s2)cn1CCCNC(=N)N [Compound I-11] | < 4 | < 4 | 8 to 16 | 8 to 16 | < 4 | < 4 | < 4 | < 4 | > 16 |
| CC(C)(O/N=C(\C(=O)N[C@@H]1C(=O)N(S(=O)(=O)O)[C@@H]1CNC(=O)c1cnc([C@@H]2CC[N+](C)(CCNC(=O)c3ccc(O)c(O)c3Cl)C2)s1)c1csc(N)n1)C(=O)O (stereo partly drawn) [Compound I-34] | < 4 | < 4 | < 4 | < 4 | 4 to 8 | < 4 | 8 to 16 | < 4 | < 4 |
| CC(C)(O/N=C(\C(=O)N[C@@H]1C(=O)N(S(=O)(=O)O)[C@@H]1CNC(=O)c1cc(C2CNC2)no1)c1csc(N)n1)C(=O)O [Compound I-6] | < 4 | < 4 | > 16 | > 16 | > 16 | > 16 | < 4 | < 4 | > 16 |
| Nc1nc(/C(=N/OC2(C(=O)O)CC2)C(=O)N[C@@H]2C(=O)N(S(=O)(=O)O)[C@@H]2CNC(=O)c2cc([C@@H]3CCN(C(=O)c4ccc(O)c(O)c4Cl)C3)no2)cs1 [Compound I-23] | < 4 | < 4 | < 4 | < 4 | 8 to 16 (≈ 10.2 to 20.4 µM) | < 4 | < 4 | < 4 | < 4 |
| CC(C)(O/N=C(\C(=O)N[C@@H]1C(=O)N(S(=O)(=O)O)[C@@H]1CNC(=O)c1cc(-c2cc[n+](CCNC(=N)N)cc2)no1)c1csc(N)n1)C(=O)O [Compound I-3] | < 4 | < 4 | > 16 | > 16 | 4 to 8 | > 16 | < 4 | < 4 | > 16 |
| Nc1nc(/C(=N/OC2(C(=O)O)CC2)C(=O)N[C@H]2C(=O)N(S(=O)(=O)O)[C@H]2CNC(=O)c2cc([C@@H]3CCN(C(=O)c4cc(=O)c(O)cn4O)C3)no2)cs1 [Compound I-17] | < 4 | < 4 | 4 to 8 (≈ 5.22 to 10.4 µM) | < 4 | > 16 | < 4 | < 4 | < 4 | < 4 |
| CC(C)(O/N=C(\C(=O)N[C@@H]1C(=O)N(S(=O)(=O)O)[C@@H]1CNC(=O)c1cc([C@@H]2CCN(C(=O)c3cc(=O)c(O)cn3O)C2)no1)c1nsc(N)n1)C(=O)O [Compound I-14] | < 4 | < 4 | > 16 | < 4 | > 16 | < 4 | > 16 | < 4 | < 4 |
| CC(C)(O/N=C(\C(=O)N[C@H]1C(=O)N(S(=O)(=O)O)[C@H]1CNC(=O)c1cc([C@@H]2CCN(C(=O)c3cc(Cl)c(O)c(O)c3Cl)C2)no1)c1csc(N)n1)C(=O)O [Compound I-19] | < 4 | < 4 | 4 to 8 (≈ 4.88 to 9.76 µM) | < 4 | > 16 | < 4 | 8 to 16 (≈ 9.76 to 19.5 µM) | < 4 | 4 to 8 (≈ 4.88 to 9.76 µM) |
| C[n+]1cc(-c2ncc(C(=O)NC[C@@H]3[C@H](NC(=O)/C(=N\OC(C)(C)C(=O)O)c4csc(N)n4)C(=O)N3S(=O)(=O)O)s2)cn1CCCN [Compound I-2] | < 4 | < 4 | > 16 | > 16 | < 4 | < 4 | < 4 | < 4 | > 16 |
| C[n+]1cc(-c2ncc(C(=O)NC[C@@H]3[C@H](NC(=O)/C(=N\OC(C)(C)C(=O)O)c4csc(N)n4)C(=O)N3S(=O)(=O)O)s2)cn1CC(N)CN (stereo partly drawn) [Compound I-9] | < 4 | < 4 | > 16 | > 16 | 4 to 8 | 8 to 16 | < 4 | < 4 | > 16 |
| CC(C)(O/N=C(\C(=O)N[C@H]1C(=O)N(S(=O)(=O)O)[C@H]1CNC(=O)c1cc([C@@H]2CC[N+](C)(CCNC(=O)c3ccc(O)c(O)c3Cl)C2)no1)c1csc(N)n1)C(=O)O (stereo partly drawn) [Compound I-20] | < 4 | < 4 | > 16 | 8 to 16 | > 16 | 8 to 16 | > 16 | < 4 | 8 to 16 |
| CC(C)(O/N=C(\C(=O)N[C@@H]1C(=O)N(S(=O)(=O)O)[C@@H]1CNC(=O)c1cc([C@@H]2CCN(CCNC(=O)c3cc(=O)c(O)cn3O)C2)no1)c1csc(N)n1)C(=O)O [Compound I-40] | < 4 | < 4 | < 4 | < 4 | 8 to 16 (≈ 9.87 to 19.7 µM) | < 4 | 8 to 16 (≈ 9.87 to 19.7 µM) | < 4 | < 4 |
| CC(C)(O/N=C(\C(=O)N[C@@H]1C(=O)N(S(=O)(=O)O)[C@@H]1CNC(=O)c1cnc(C2=CC(CCCNC(=O)c3ccc(O)c(O)c3Cl)N=C2)s1)c1csc(N)n1)C(=O)O (stereo partly drawn) [Compound I-42] | < 4 | < 4 | < 4 | < 4 | < 4 | < 4 | 8 to 16 (≈ 9.36 to 18.7 µM) | < 4 | < 4 |
| CC(C)(O/N=C(\C(=O)N[C@H]1C(=O)N(S(=O)(=O)O)[C@H]1CNC(=O)c1cc([C@@H]2CCN(C(=O)c3cc(=O)c(O)cn3O)C2)no1)c1csc(N)n1)C(=O)O [Compound I-21] | < 4 | < 4 | > 16 | < 4 | > 16 | < 4 | > 16 | < 4 | < 4 |
